Test results published in patent publication US20100086602A1, “PHARMACEUTICAL COMPOSITION CONTAINING STATIN-ENCAPSULATED NANOPARTICLE” (priority 2006, published 2010).
Entries after “also recorded” stand apart in the source; their conditions may differ. Values belong to the compound of their own block, whether it stands above or below them.

Experiments:
[1] = Serological assessment 14 days after hindlimb ischemia; assay type: in vivo, mice
Experimental: (§1) Male C57BL/6J wild-type mice were bred and maintained in the Laboratory of Animal Experiments at Kyushu University. After anesthesia with an intraperitoneal injection of ketamine hydrochloride and xyladine hydrochloride, animals underwent surgical ligation and resection of the left femoral artery to produce unilateral hindlimb ischemia. […] As a control, a group of PLGA-FITC-mice (FITC group) received intramuscular injections of FITC-loaded PLGA nanoparticles (0.16 mg/100 μl), a group of PEG/CS-PLGA-FITC-mice (PEG/CS-FITC group) received intramuscular injections of FITC-loaded PEG/CS PLGA nanoparticles (0.16 mg/100 μl), and another group of mice (NT group) received no treatment.
There were no difference between each group in the total cholesterol, triglyceride, myoglobin, CK, BUN and Cre values in serum.

[2] = system: unilateral hindlimb ischemia; test: Arteriogenesis by immunohistochemical staining with α-SMA; assay type: in vivo, mice; conditions: day 14 after hindlimb ischemia; 0.01 mg pitavastatin intramuscular
Experimental: (§2) A group of PLGA-Pit-mice (PLGA-Pit group) and a group of PEG/CS-PLGA-Pit-mice (PEG/CS-Pit group) received intramuscular injections of pitavastatin-loaded PLGA nanoparticles (0.18 mg/100 μl) and pitavastatin-loaded PEG/CS-PLGA nanoparticles (0.44 mg/100 μl, each containing 0.01 mg of pitavastatin), respectively. As control, a group of PLGA-mice (PLGA group) received intramuscular injections of PLGA nanoparticles (0.18 mg/100 μl) and another group of mice (NT group) received no treatment.
Arteriogenesis was determined by immunohistochemical staining with α-SMA.

hindlimb ischemia [3] = test: Partial pressure ratio of oxygen in arterial and venous blood during muscular exercise of ischemic hindlimb; assay type: in vivo, Japanese rabbit; conditions: 35 days after ischemia; exercise by electric stimulus for 30 minutes; 0, 15 and 30 minutes
Experimental: Japanese rabbits (2.7 to 3.2 kg) underwent surgical ligation and resection of the unilateral femoral artery to produce hindlimb ischemia. After 7 days, animals were randomized to four groups: PLGA-pitavastatin group, PLGA-FITC group, pitavastatin group and PBS group, and received therapeutic substances by intra-ischemic-muscular injection of 5 ml (concentration of pitavastatin-loaded nanoparticle 6 mg/ml, corresponding to 0.33 mg/ml of pitavastatin). After 28 days from intramuscular injection (35 days after ischemia), animals were performed angiography. Mice were inserted catheters (5 Fr) from right internal carotid artery and the catheters were placed in left internal iliac artery under fluoroscopic control. […] 5 mm of grids were prepared within the range surrounded by lower end of femur (upper end), lower end of quadriceps (lower end), arteria iliaca interna (trunks are not counted, inner end) and distal portion of severed blood vessel (outer end). Angiographic score was calculated by dividing the number of grids in which blood vessel is found by total number of grids.
The effect of nanostatin on insufficient blood from at ischemic hindlimb on muscular exercising is examined. […] The partial pressure ratio of oxygen in arterial and venous blood in each time point was determined. The concentration of hemoglobine was determined at 0 minute. […]

hindlimb ischemia [4] = test: Recovery rate of ischemic tissues, pitavastatin dose comparison (FIG. 15); assay type: in vivo, mice; conditions: intramuscular, one portion; only pitavastatin 0.4, 4 and 20 mg/kg or PLGA-pitavastatin; days 3, 7 and 14
Experimental: The recovery rate of ischemic tissues were determined for ischemic mice injected intramuscularly with only nanoparticles, only pitavastatin (0.4, 4 and 20 mg/kg) or PLGA-pitavastatin in one portion.

[5] = system: unilateral hindlimb ischemia; test: Laser Doppler perfusion imaging of limb blood flow after hindlimb ischemia; assay type: in vivo, mice; conditions: single intramuscular injection containing 0.01 mg statin (0.5 mg/kg), days 0, 3, 7 and 14, versus no-treatment
Experimental: as §2

hindlimb ischemia [6] = test: Angiography 35 days after hindlimb ischemia (angiographic score); assay type: in vivo, Japanese rabbits; conditions: Mean±SE; 35 days after ischemia, 28 days after intramuscular injection of 5 ml (0.33 mg/ml pitavastatin)
Experimental: Japanese rabbits (2.7 to 3.2 kg) underwent surgical ligation and resection of the unilateral femoral artery to produce hindlimb ischemia. After 7 days, animals were randomized to four groups: PLGA-pitavastatin group, PLGA-FITC group, pitavastatin group and PBS group, and received therapeutic substances by intra-ischemic-muscular injection of 5 ml (concentration of pitavastatin-loaded nanoparticle 6 mg/ml, corresponding to 0.33 mg/ml of pitavastatin). After 28 days from intramuscular injection (35 days after ischemia), animals were performed angiography. Mice were inserted catheters (5 Fr) from right internal carotid artery and the catheters were placed in left internal iliac artery under fluoroscopic control. 0.25 mg of Millisrol were injected into artery through catheters, followed by injection of imaging agents at the rate of 1 ml/second for 5 seconds to perform angiography. An assessment for the number of blood vessel was carried out by using static images at 3 second after injection of imaging agents. 5 mm of grids were prepared within the range surrounded by lower end of femur (upper end), lower end of quadriceps (lower end), arteria iliaca interna (trunks are not counted, inner end) and distal portion of severed blood vessel (outer end). Angiographic score was calculated by dividing the number of grids in which blood vessel is found by total number of grids.

[7] = system: unilateral hindlimb ischemia; test: Capillary density by immunohistochemical staining with anti-mouse PECAM-1 (CD31) antibody; assay type: in vivo, mice; conditions: day 14 after hindlimb ischemia; 0.01 mg statin intramuscular
Experimental: as §2

[8] = system: muscular tissues of ischemic hindlimb; set-up: species or system mice; conditions: mouse, in vivo
Experimental: as §1

BUN ([1]; serum, n = 4): 30.3 ± 2.8 mg/dL
CK ([1]; serum, n = 4): 159.0 ± 37.7 IU/L
Cre ([1]; serum, n = 4): 0.083 ± 0.009 mg/dL
myoglobin ([1]; serum, n = 4): <10 ng/mL
Compound: CC(C)c1c(C(=O)Nc2ccccc2)c(-c2ccccc2)c(-c2ccc(F)cc2)n1CC[C@@H](O)C[C@@H](O)CC(=O)O [atorvastatin]
signs of rhabdomyolysis ([1]; intramuscularly injected mice): Neither group of atorvastatin nor atorvastatin-loaded nanoparticle intramuscularly injected mice showed the signs of rhabdomyolysis
total cholesterol ([1]; serum, n = 4): 66.0 ± 3.2 mg/dL
triglyceride ([1]; serum, n = 4): 13.5 ± 1.8 mg/dL

Compound: O=C(O)C[C@H](O)C[C@H](O)/C=C/c1c(C2CC2)nc2ccccc2c1-c1ccc(F)cc1 [pitavastatin]
α-SMA positive vascular structure (arteriogenesis) [2]: comparable to no-treatment group
partial pressure ratio of oxygen in arterial and venous blood during muscular exercise (hindlimb ischemia [3]): increases of partial pressure ratio of oxygen in arterial and venous blood were shown
recovery of ischemic tissues / angiogenesis (ratio of ischemic region to normal region) (hindlimb ischemia [4]): does not result in angiogenesis; also recorded: No angiogenesis
limb blood flow at ischemic side (LDPI index, ratio of ischemic to normal limb) [5]: comparable to no-treatment group
limb blood flow at ischemic side (LDPI index, ratio of ischemic to normal limb) ([5]; listed as Pit): no improvement of blood flow
Angiographic score (hindlimb ischemia [6]): 0.51±0.04
capillary density, endothelial cells (CD31 positive cells) [7]: comparable to no-treatment group

Compound: FITC
nanoparticles remaining in muscular tissues (fluorescence) [8]: nanoparticles remain in muscular tissues on day 7
